This is an account of results in patent EP2036556A1, “Piperidone derivatives and medical uses thereof” (Heinrich-Pette-Institut, priority 2007, dated 2009).

The subject of one data set is rodent malaria model. To be noted: cited from earlier work.
The next data set concerns P. falciparum. The note with it: cited from earlier work.
For data set [1], the system named is macrophage cell line J774.1. Briefly: Macrophage assay (Alamar Blue cytotoxicity). The data set is classed as cell-based. The note with it: Mus musculus. As to the method: The macrophage cell line J774.1 was maintained in complete Click RPMI medium. For the experimental procedures cells were detached from the flasks with a rubber police, washed twice with PBS and suspended at 2 x 10^6 cells mL^-1 in complete Click RPMI medium. […] Following the addition of 20 µl of Alamar Blue, the plates were further incubated at similar conditions. The plates were then read 24 and 48 h later. Control experiments to examine the effect of cell density, incubation time and DMSO concentration were performed. Absorbance in the absence of compounds was set as 100 % of growth control.
A general note: The colour change of resazurin is a common sign of viable cells or microbes.

The test system of data set [2] is T. brucei brucei laboratory strain TC 221. As to the kind of experiment: Trypanosome assay (in vitro cytotoxicity, Alamar Blue). The note with it: for EC50: Trypanosoma brucei. In kind it is cell-based, Trypanosoma brucei brucei. How it is done: Parasite culture: Trypomastigote forms of T. brucei brucei laboratory strain TC 221 were cultured in Baltz medium according to standard conditions.^36 In vitro cytotoxicity assays: The test compounds were dissolved in DMSO or 0.1 M NaOH. A defined number of parasites (10^4 trypanosomes per mL) were exposed in test chambers of 96-well plates to various concentrations of the test substances in a final volume of 200 µl. Positive (trypanosomes in culture medium) and negative controls (test substance without trypanosomes) were run with each plate. The plates were then incubated at 37°C in an atmosphere of 5 % CO2 for a total time period of 72 h. […] The effect of test substances was quantified in ED50 values by linear interpolation^18 of three different measurements. The activity of the test substances was measured by light absorption in an MR 700 Microplate Reader at a wavelength of 550 nm with a reference wave length of 630 nm, using the Alamar Blue®.

For a further data set, the system named is HTLV-I. As to the kind of experiment: Inhibition of HTLV-I virus production in MT-2 cells (real-time PCR of gag RNA in supernatant). In kind it is cell-based. To be noted: Primate T-lymphotropic virus 1, MT2, 240 h, day 10 and 14, read-out: inhibition of virus production in relation to the solvent control. An excerpt:
For the investigation wether the inhibition of DOHH by the compositions of the invention can influence replication of HTLV-I, the lymphoma cell line MT-2, which is latently infected by HTLV-I was used as a model system (Harada et al., 1985, Infection of HTLV-III/LAV in HTLV-I-carrying cells MT-2 and MT-4 and application in a plaque assay. Science 229, 563-566). MT-2 cells continually produce a high amount of virus particles which are secreted into the cell culture supernatant, and they grow quickly. The experimental approach is based on the comparison of the virus load of cells treated with the potential inhibitor and an untreated control. As the inhibitor was dissolved in DMSO, the same amount of this solvent was added to the control cells.
For investigating the influence of inhibition of DOOH on the replication of HTLV-I, as before, MT-2 cells were cultivated with the determined subtoxic concentrations of compound 11 as well as a solvent control. In regular intervals, cell vitality was determined and the RNA of the virus particles from the supernatant was isolated. After reverse transcription with a primer specific for the gag region of HTLV-I RNA, the cDNA was quantified by real-time PCR. For detection of the amplified DNA, a gag-specific probe was used. A plasmid comprising the HTLV-I provirus served as a standard. […]
(In general: In qPCR the cycle at which signal appears reflects the starting amount.)

Data set [3] deals with X4-tropic HIV-1 strain NL4/3. As to the kind of experiment: HIV-1 infection experiments in PM1 cells, p24 antigen ELISA, strain NL4/3. The data set is classed as cell-based. The note with it: concentration of 6 µM, compared to DMSO control cultures. As to the method:
(§1) HIV-1 infection experiments using the T-cell tropic (X4) strain NL4/3, the macrophage-tropic (R5) strain BaL were routinely performed using PM1 cells (virus laboratory strains and cells were obtained from the NIH AIDS Research and Reference Reagent Program). Cells were cultured in RPMI medium containing 10 % fetal calf serum (Pansystems GmbH) and antibiotics (penicillin and streptomycin). For HIV-1 infection, 5 x 10^7 cells were resuspended in 500 µl culture medium without drugs and incubated at 37 °C for 3 h with 100 ng of HIV-1 viral stocks. After infection, cells were washed twice with PBS without Ca^2+ and Mg^2+ to avoid false positive p24 antigen determination. Cells were resuspended and identical aliquots (5 x 10^5 / mL) of infected cells were further cultured in 24-well plates (triplicates) in the presence of the drugs (dissolved in DMSO) at various concentrations, or in medium with DMSO as control for the calculation of the inhibition of virus replication. Culture medium was changed and cells were splitted twice a week post-infection. Viability of the cells (as measured by Alamar Blue) and p24 antigen levels (as measured by ELISA; Innogenetics N.V.) were determined at different time points.

Another data set concerns MT-2 cells. In kind it is cell-based. The note with it: human, 10 days, 10 µM. How it is done: First, the subtoxic concentration of the inhibitor was determined by vitality assays. MT-2 cells were cultured for 14 days with 10, 5, 2.5 and 1.5 µM of the inhibitor as well as DMSO as a solvent control. In regular intervals, samples for determination of the vitality of the cells were taken. Vitality was tested with the alamarBlue®-Assays.

The test system of data set [4] is R5-tropic HIV-1 strain BaL. As to the kind of experiment: HIV-1 infection experiments in PM1 cells, p24 antigen ELISA, strain BaL. In kind it is cell-based. As to the method:
as §1
In general terms: ELISA stands for enzyme-linked immunosorbent assay.

The next data set relates to HIV-1. Briefly: HIV-1 infection experiments in PM1 cells, strain not specified (BaL and/or NL4/3). The data set is classed as cell-based. To be noted: strain and concentration not given. How it is done: as §1
The subject of the next data set is plasmodia. To be noted: after 48 h; previous study; cited from earlier work.
[5] abbreviates: J774.1 macrophages, after 48h, read-out: ED50 [µM] Macrophage after 48h.
Setting [6] is: strain TC 221, 10^4 trypanosomes per mL, incubated 72 h, reading at 48 h, Alamar Blue, read-out: ED50 [µM] T. brucei brucei.

Molecules are shown by their SMILES. Like-named read-outs stand apart in the source and are kept apart here. Where only a bound is given, the exact number is not on record here.

`Cc1cc(C2CCCCC2)n(O)c(=O)c1` [Ciclopiroxolamine, reference compound]: the efficacy in vivo result in the data set with rodent malaria model (rodent malaria model) was “ineffective in vivo”. Besides, the IC50 in the data set with P. falciparum (chloroquine sensitive (CQS) NF54 P. falciparum strain, read-out: IC50 in vitro proliferation) is 8.2 µM. Moreover, the EC50 was found to be 4.62 ± 0.97 µM in [1] (J774.1, reference substance, for comparison, 48 h, read-out: ED50 (macrophages, 48 h)) and 0.62 ± 0.22 µM in [2] (reference substances, for comparison (title of Table 1), read-out: ED50 (T. brucei brucei)).
Consider `C=CCN1[C@@H](c2ccc([N+](=O)[O-])cc2)C(C(=O)OCC)=C(O)C(C(=O)OCC)[C@@H]1c1ccc([N+](=O)[O-])cc1` (stereo partly drawn) [Compound 11, Diethyl (2R,6S)-1-allyl-4-hydroxy-2,6-bis(4-nitrophenyl)-1,2,3,6-tetrahydropyridine-3,5-dicarboxylate], for which the inhibition at 2.5 µM in the data set on HTLV-I (2.5 µM) was above 90%. In addition, in the data set on HTLV-I (5 µM), the inhibition at 5 µM was above 80%. Moreover, the “inhibition of replication of HIV-1 NL4/3” value in data set [3] was “completely inhibit”. Further, the “death of the cells” value with MT-2 cells is 90%. In addition, the “inhibition of replication of HIV-1 BaL” value in [4] (PM1 cells, concentration of 5 µM, compared to DMSO control cultures) is “completely inhibit”. Further, the EC50 in data set [1] (setting [5]) was above 100 µM; in data set [2] (setting [6]), 3.06 ± 0.55 µM.
Take `COC(=O)C1=C(O)C(C(=O)OC)[C@H](c2ccc([N+](=O)[O-])cc2)N(Cc2ccccc2)[C@H]1c1ccc([N+](=O)[O-])cc1` (stereo partly drawn) [Compound 12, Dimethyl (2R,6S)-1-benzyl-4-hydroxy-2,6-bis(4-nitrophenyl)-1,2,3,6-tetrahydropyridine-3,5-dicarboxylate]: in the data set on HIV-1, the “inhibition of virus replication” value is 20%. In addition, the EC50 in data set [1] (setting [5]) is 18.4 ± 2.93 µM; in data set [2] (setting [6]) it was 3.01 ± 0.27 µM.
The like results for `CCOC(=O)C1=C(O)C(C(=O)OCC)[C@H](c2ccc([N+](=O)[O-])cc2)N(Cc2ccccc2)[C@H]1c1ccc([N+](=O)[O-])cc1` (stereo partly drawn) [Compound 13, Diethyl (2R,6S)-1-benzyl-4-hydroxy-2,6-bis(4-nitrophenyl)-1,2,3,6-tetrahydropyridine-3,5-dicarboxylate] were, in that order, 20%, above 100 µM and 2.72 ± 0.51 µM.
Consider `COC(=O)C1=C(O)C[C@@H](c2ccccn2)N(Cc2ccc(Cl)cc2)[C@H]1c1ccccn1` [Compound 21, Methyl (2'R,6'S)-1'-(4-chlorobenzyl)-4'-hydroxy-1',2',5',6'-tetrahydro-2,2';6',2''-terpyridine-3'-carboxylate], for which the values for the EC50 in [1] (setting [5]) and in data set [2] (setting [6]) were 32.8 ± 0.49 µM and 0.32 ± 0.09 µM, respectively. Further, the “activity against the plasmodia” value in the data set with plasmodia is listed as “high activity”.
`C=CCN1[C@@H](c2ccccn2)C(C(=O)OC)=C(O)C[C@H]1c1ccccn1` [Compound 24, Methyl (2'R,6'S)-1'-allyl-4'-hydroxy-1',2',5',6'-tetrahydro-2,2';6',2''-terpyridine-3'-carboxylate]: the EC50 in [1] (setting [5]) came to 35 µM; in [2] (setting [6]) it was 1.08 ± 0.48 µM. In addition, the “activity against the plasmodia” value with plasmodia is on record as “high activity”.
For the compound `Cl.Clc1cccc(Cl)c1CON=CC1CCN(CCCc2ccccc2)CC1` [Compound 53, 4-[(2,6-Dichloro-benzyloxyimino)-methyl]-1-(3-phenyl-propyl)-piperidinium hydrochloride], in data set [4] (Human immunodeficiency virus 1, HIV-1 BaL infected PM1 cells, concentration of 10 µM, read-out: virus replication inhibited), the inhibition at 10 µM came out at 85%. In addition, the EC50 turned out to be 28.4 ± 5.92 µM in [1] (setting [5]) and 3.86 ± 1.95 µM in [2] (setting [6]). Further, in data set [2] (statement of the discussion), the “activity against trypanosomes (in words)” value is “active against trypanosomes”.
Turning to `N[C@@H](Cn1ccc(=O)c(O)c1)C(=O)O` [mimosine, L-mimosine], the toxicity in vivo result with rodent malaria model (in vivo) is listed as “toxic”. Besides, the IC50 in the data set with P. falciparum (chloroquine resistant (CQR) strain, read-out: IC50 antiplasmodial effect) is 39 µM; with P. falciparum (chloroquine susceptible (CQS) strain, read-out: IC50 antiplasmodial effect) it was 32 µM.
